Earlier results on one compound are cited in patent US7744929B2, “Botanical drug compositions for treatments of liver and immunological disorders” (priority 2003, dated 2010).

The subject of this data set is HCV.

`NC(=O)c1ncn([C@@H]2O[C@H](CO)[C@@H](O)[C@H]2O)n1` [ribavirin]: for the setting “ribavirin added to interferon”, the “increase of the sustained response rate” value was “two- to three fold”. The “effect on HCV” value (ribavirin by itself) was “little effect”.
